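96-well plates; 48 h exposure; 5 concentrations. Endpoints by linear interpolation between flanking doses. Not reached: highest tested concentration assigned. GI50 is the concentration that inhibits growth by half.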 Active and inactive are the calls of the source. No stated cut-off is given here; in the data, active = GI50 up to about 1.1 µM and inactive = higher.
Assays:
Assay in all cases: NCI tumour cell line growth inhibition, 48 h
DMS-114 = tested on: DMS-114
HCT-116 = tested on: HCT-116
M19-MEL = tested on: M19-MEL
A549 = tested on: A549
DLD-1 = tested on: DLD-1
SK-MEL-28 = tested on: SK-MEL-28
COLO 205 = tested on: COLO 205
UACC-257 = tested on: UACC-257
HT-29 = tested on: HT-29
OVCAR-8 = tested on: OVCAR-8
EKVX = tested on: EKVX
HL-60 = tested on: HL-60
SW-620 = tested on: SW-620
NCI-H522 = tested on: NCI-H522
HOP-18 = tested on: HOP-18
UO-31 = tested on: UO-31
UACC-62 = tested on: UACC-62
SNB-75 = tested on: SNB-75
786-0 = tested on: 786-0
HOP-92 = tested on: HOP-92
DMS-273 = tested on: DMS-273
LOX IMVI = tested on: LOX IMVI
A498 = tested on: A498
HOP-62 = tested on: HOP-62
RXF 631 = tested on: RXF 631
NCI-H226 = tested on: NCI-H226
KM-20L2 = tested on: KM-20L2
SF-268 = tested on: SF-268
LXFL 529 = tested on: LXFL 529
OVCAR-4 = tested on: OVCAR-4
KM12 = tested on: KM12
OVCAR-3 = tested on: OVCAR-3
Malme-3M = tested on: Malme-3M
M14 = tested on: M14
HCC 2998 = tested on: HCC 2998
CCRF-CEM = tested on: CCRF-CEM
NCI-H460 = tested on: NCI-H460
RXF 393 = tested on: RXF 393
CAKI-1 = tested on: CAKI-1
SNB-19 = tested on: SNB-19
SF-295 = tested on: SF-295
HCT-15 = tested on: HCT-15
ACHN = tested on: ACHN
IGROV-1 = tested on: IGROV-1
RPMI-8226 = tested on: RPMI-8226
K562 = tested on: K562
SN12C = tested on: SN12C
SK-OV-3 = tested on: SK-OV-3
NCI-H23 = tested on: NCI-H23
U-251 = tested on: U-251
TK-10 = tested on: TK-10
SNB-78 = tested on: SNB-78
OVCAR-5 = tested on: OVCAR-5
SR = tested on: SR
MOLT-4 = tested on: MOLT-4
SK-MEL-5 = tested on: SK-MEL-5
SK-MEL-2 = tested on: SK-MEL-2
SF-539 = tested on: SF-539

Measured: GI50

Cc1cc(Cc2cc(C)c(NC(=O)C(=O)C3C(=O)NC(=S)NC3=O)c(C(C)C)c2)cc(C(C)C)c1NC(=O)C(=O)C1C(=O)NC(=S)NC1=O
inactive: DMS-114 > 100 µM | HCT-116 > 100 µM | M19-MEL > 100 µM | A549 > 100 µM | DLD-1 > 100 µM | SK-MEL-28 > 100 µM | COLO 205 > 100 µM | UACC-257 > 100 µM | HT-29 > 100 µM | OVCAR-8 > 100 µM | EKVX > 100 µM | HL-60 > 100 µM | SW-620 > 100 µM | NCI-H522 > 100 µM | HOP-18 > 100 µM | UO-31 > 100 µM | UACC-62 > 100 µM | SNB-75 > 100 µM | 786-0 > 100 µM | HOP-92 > 100 µM | DMS-273 > 100 µM | LOX IMVI > 100 µM | A498 > 100 µM | HOP-62 > 100 µM | RXF 631 > 100 µM | NCI-H226 > 100 µM | KM-20L2 > 100 µM | SF-268 > 100 µM | LXFL 529 > 100 µM | OVCAR-4 > 100 µM | KM12 > 100 µM | OVCAR-3 > 100 µM | Malme-3M > 100 µM | M14 > 100 µM | HCC 2998 > 100 µM | CCRF-CEM > 100 µM | NCI-H460 > 100 µM | RXF 393 > 100 µM | CAKI-1 > 100 µM | SNB-19 > 100 µM | SF-295 > 100 µM | ACHN > 100 µM | IGROV-1 > 100 µM | RPMI-8226 > 100 µM | K562 > 100 µM | SN12C > 100 µM | SK-OV-3 > 100 µM | NCI-H23 > 100 µM | U-251 > 100 µM | TK-10 > 100 µM | SNB-78 > 100 µM | OVCAR-5 > 100 µM | SR > 100 µM | MOLT-4 > 100 µM
> 100 µM: HCT-15

CN(C)CCC1(C2=CCCC2)CC/C(=C\c2ccccc2Cl)C1=O (centres undefined)
inactive: DMS-114 12.2 µM | HCT-116 8.41 µM | M19-MEL 33 µM | A549 13.8 µM | DLD-1 15.2 µM | SK-MEL-28 13.1 µM | COLO 205 16.2 µM | UACC-257 14.8 µM | HT-29 6.44 µM | OVCAR-8 15 µM | EKVX 15.6 µM | HL-60 4.41 µM | SW-620 11.9 µM | SK-MEL-5 12.8 µM | HOP-18 12.4 µM | UO-31 7.24 µM | UACC-62 14.6 µM | 786-0 12.6 µM | HOP-92 12.4 µM | A498 14.1 µM | RXF 631 6.07 µM | KM-20L2 11.5 µM | SF-268 14.3 µM | SK-MEL-2 13.5 µM | LXFL 529 11.5 µM | OVCAR-4 11.9 µM | KM12 12.9 µM | OVCAR-3 14.3 µM | Malme-3M 14.5 µM | M14 12.1 µM | HCC 2998 8.61 µM | CCRF-CEM 9.25 µM | NCI-H460 13.2 µM | RXF 393 4.49 µM | SNB-19 14.3 µM | SF-295 14.6 µM | ACHN 17.3 µM | IGROV-1 19.8 µM | RPMI-8226 18.3 µM | K562 3.75 µM | SN12C 13.4 µM | NCI-H23 15.2 µM | U-251 12.6 µM | TK-10 18.7 µM | SNB-78 12.4 µM | OVCAR-5 15.7 µM | MOLT-4 4.57 µM | SF-539 15.2 µM
5.85 µM: HCT-15

Reference: ChEMBL document CHEMBL1201862, “PubChem BioAssay data set” (2004)
